Source: ChEMBL document CHEMBL4765474, “Discovery of a "Gatekeeper" Antagonist that Blocks Entry Pathway to Retinoid X Receptors (RXRs) without Allosteric Ligand Inhibition in Permissive RXR Heterodimers” (J Med Chem, 2021)

Assays:
[1] = molecular target: T1, Retinoic acid receptor RXR-alpha (Homo sapiens, UniProt P19793); assay: Binding affinity to human RXR-alpha by ITC analysis
T1 sequence (P19793 whole entry): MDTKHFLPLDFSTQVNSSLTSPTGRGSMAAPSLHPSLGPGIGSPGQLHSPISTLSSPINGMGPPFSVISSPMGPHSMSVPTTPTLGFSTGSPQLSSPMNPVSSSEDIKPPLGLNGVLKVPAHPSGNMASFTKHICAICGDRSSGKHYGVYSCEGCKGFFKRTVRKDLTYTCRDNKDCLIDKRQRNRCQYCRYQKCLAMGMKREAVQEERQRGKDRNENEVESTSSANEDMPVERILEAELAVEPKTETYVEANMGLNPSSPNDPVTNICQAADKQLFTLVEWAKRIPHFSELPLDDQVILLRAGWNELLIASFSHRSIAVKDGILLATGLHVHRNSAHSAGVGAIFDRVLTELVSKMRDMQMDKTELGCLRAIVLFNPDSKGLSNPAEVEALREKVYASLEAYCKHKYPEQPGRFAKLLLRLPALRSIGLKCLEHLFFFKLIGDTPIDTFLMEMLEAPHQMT

[2] = molecular target: T1, Retinoic acid receptor RXR-alpha; assay: Displacement of [3H]-9-cis retinoic acid from recombinant human RXR-alpha LBD by liquid scintillation counting based competitive ligand binding assay
[3] = molecular target: T1, Retinoic acid receptor RXR-alpha; assay: Competitive antagonist activity at human RXRA/RXRA expressed in African green monkey COS7 cells assessed as reduction in bexarotene-induced receptor activation by RXRE-dependent luciferase reporter gene assay; assay type: cell-based; conditions: read-out: pA2 (converted)
RXR alpha/PPAR gamma = RXR alpha/PPAR gamma (Homo sapiens, UniProt P19793); assay: Competitive antagonist activity at human PPAR-gamma/RXRA expressed in African green monkey COS7 cells assessed as reduction in bexarotene-induced receptor activation by RXRE-dependent luciferase reporter gene assay; assay type: cell-based; conditions: read-out: pA2 (converted)
[4] = molecular target: T2, Retinoic acid receptor RXR-alpha/oxysterols receptor LXR-alpha (Homo sapiens, UniProt P19793); assay: Competitive antagonist activity at human LXR-alpha/RXRA expressed in African green monkey COS7 cells assessed as reduction in bexarotene-induced receptor activation by RXRE-dependent luciferase reporter gene assay; assay type: cell-based; conditions: read-out: pA2 (converted)
T2 sequence (P19793 whole entry): T1 sequence (P19793 whole entry)
T2 sequence (Q13133 whole entry): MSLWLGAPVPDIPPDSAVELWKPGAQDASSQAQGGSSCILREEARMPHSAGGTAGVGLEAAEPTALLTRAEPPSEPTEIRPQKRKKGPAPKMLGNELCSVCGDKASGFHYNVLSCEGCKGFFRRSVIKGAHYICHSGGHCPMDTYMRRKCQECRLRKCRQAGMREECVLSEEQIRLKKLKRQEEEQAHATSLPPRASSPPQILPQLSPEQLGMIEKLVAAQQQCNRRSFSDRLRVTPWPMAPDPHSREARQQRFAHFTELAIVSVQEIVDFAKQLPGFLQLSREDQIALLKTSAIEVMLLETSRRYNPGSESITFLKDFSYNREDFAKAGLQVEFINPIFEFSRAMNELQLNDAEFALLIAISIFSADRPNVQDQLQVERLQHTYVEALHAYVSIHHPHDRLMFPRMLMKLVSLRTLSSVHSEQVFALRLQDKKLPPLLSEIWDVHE

[5] = molecular target: T1, Retinoic acid receptor RXR-alpha; assay: Binding affinity to human RXR-alpha LBD incubated for 2 hrs by tryptophan fluorescence quenching assay

RXR alpha/PPAR gamma, sequence (P37231 whole entry, one chain of several): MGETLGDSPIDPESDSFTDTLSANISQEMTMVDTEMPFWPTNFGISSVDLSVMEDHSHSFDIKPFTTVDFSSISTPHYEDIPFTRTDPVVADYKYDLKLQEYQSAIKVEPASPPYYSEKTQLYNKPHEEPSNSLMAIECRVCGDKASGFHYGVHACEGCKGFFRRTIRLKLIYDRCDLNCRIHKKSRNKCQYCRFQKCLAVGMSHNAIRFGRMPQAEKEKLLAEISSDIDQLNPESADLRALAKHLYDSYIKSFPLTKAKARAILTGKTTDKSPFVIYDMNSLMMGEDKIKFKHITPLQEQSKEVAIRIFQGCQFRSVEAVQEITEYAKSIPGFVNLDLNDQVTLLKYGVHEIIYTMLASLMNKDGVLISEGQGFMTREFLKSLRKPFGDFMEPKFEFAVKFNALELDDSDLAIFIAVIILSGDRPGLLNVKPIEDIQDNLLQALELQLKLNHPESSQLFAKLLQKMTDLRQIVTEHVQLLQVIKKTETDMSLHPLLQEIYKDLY

Kd [1]: 1350 nM
Ki [2]: 1340 nM
Kb [3]: 63.1 nM
Kb (RXR alpha/PPAR gamma): 10 nM
Kb [4]: 302 nM
Kd [5]: 260 nM
SMILES: CCCCCCOc1cc2c(cc1N(C)c1ncc(C(=O)O)cn1)C(C)(C)CCC2(C)C
